Measurements from patent US11780830B2, “Triazolone derivatives or salts thereof and pharmaceutical compositions comprising the same” (YUHAN CORPORATION, priority 2018, dated 2023).
Counter-ions that a name gives are not always drawn.

How the values were obtained:
Format in all cases: biochemical
[1] = molecular target: T1, recombinant human MAO-A (monoamine oxidase-A) (Homo sapiens, UniProt P21397); experiment: Activity on recombinant human MAO-A, method similar to the VAP-1 assay; settings: substrate 0.5 mM tyramine; read-out: Inhibitory Activity (IC50, nM) MAO-A
T1 construct: purchased Sigma-Aldrich
T1 sequence (P21397 1-527): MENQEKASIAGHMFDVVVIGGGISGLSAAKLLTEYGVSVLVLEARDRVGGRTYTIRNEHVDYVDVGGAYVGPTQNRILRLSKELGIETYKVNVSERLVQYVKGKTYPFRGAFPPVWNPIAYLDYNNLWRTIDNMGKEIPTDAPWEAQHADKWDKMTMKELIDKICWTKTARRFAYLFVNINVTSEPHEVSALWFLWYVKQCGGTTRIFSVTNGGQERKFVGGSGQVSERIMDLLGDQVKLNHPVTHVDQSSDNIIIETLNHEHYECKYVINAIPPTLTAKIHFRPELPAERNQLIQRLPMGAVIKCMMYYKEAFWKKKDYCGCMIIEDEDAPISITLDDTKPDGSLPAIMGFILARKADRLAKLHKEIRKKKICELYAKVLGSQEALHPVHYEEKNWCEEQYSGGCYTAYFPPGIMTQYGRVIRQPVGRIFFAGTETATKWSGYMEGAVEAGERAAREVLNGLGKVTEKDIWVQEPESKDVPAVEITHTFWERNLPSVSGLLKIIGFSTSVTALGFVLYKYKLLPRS
Method in brief: (§1)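 8-point, 1:3 dose-response, four-parameter logistic IC50 from reduction in fluorescence rate versus DMSO control. HRP/Amplex Red detection of H2O2 (ex 544, em 590 nm) after 30 min, 37 °C compound–enzyme preincubation in pH 7.4 phosphate buffer. MAO-A substrate: 0.5 mM tyramine; MAO-B: 1 mM benzylamine.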

recombinant human VAP-1 = molecular target: T2, recombinant human VAP-1 (Homo sapiens, UniProt Q16853); experiment: Activity on recombinant human VAP-1, HRP-coupled Amplex Red hydrogen peroxide assay; settings: substrate 1 mM benzylamine; compound incubated with enzyme at 37° C. for 30 minutes; pH 7.4; read-out: Inhibitory Activity (IC50, nM) human VAP-1
T2 construct: purchased R&D systems
T2 sequence (Q16853 1-763): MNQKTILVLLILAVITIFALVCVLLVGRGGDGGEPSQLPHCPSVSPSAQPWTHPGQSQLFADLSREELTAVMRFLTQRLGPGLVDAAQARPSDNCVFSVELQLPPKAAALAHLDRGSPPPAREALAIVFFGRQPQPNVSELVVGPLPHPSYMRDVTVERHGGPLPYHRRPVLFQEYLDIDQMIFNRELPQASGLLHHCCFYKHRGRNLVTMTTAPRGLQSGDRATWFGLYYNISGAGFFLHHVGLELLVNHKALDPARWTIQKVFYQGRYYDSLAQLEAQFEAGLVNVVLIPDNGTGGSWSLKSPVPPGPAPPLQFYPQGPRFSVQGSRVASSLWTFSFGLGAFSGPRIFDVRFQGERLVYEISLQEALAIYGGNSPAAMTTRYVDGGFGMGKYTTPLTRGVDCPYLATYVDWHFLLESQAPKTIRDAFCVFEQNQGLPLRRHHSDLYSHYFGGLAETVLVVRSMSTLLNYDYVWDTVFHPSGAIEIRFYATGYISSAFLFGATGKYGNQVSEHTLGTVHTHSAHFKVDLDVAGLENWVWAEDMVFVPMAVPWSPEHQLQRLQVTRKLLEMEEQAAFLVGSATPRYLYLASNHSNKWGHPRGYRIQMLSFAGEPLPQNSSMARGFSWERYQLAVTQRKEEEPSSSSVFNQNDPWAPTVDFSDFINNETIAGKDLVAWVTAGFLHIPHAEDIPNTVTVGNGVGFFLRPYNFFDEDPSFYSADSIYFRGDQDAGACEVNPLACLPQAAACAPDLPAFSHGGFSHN
Method in brief: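 Compounds were preincubated with purified enzyme in 50 mM sodium phosphate pH 7.4 at 37 °C for 30 min, then 200 uM Amplex Red, 1 mM benzylamine and 1 U/mL HRP were added. Resorufin fluorescence (ex 544/em 590 nm) was followed over 1-2 h; IC50 came from 4-parameter fits of signal-rate inhibition.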

[2] = molecular target: T3, recombinant human MAO-B (monoamine oxidase-B) (Homo sapiens, UniProt P27338); experiment: Activity on recombinant human MAO-B, method similar to the VAP-1 assay; settings: substrate 1 mM benzylamine; read-out: Inhibitory Activity (IC50, nM) MAO-B
T3 construct: purchased Sigma-Aldrich
T3 sequence (P27338 1-520): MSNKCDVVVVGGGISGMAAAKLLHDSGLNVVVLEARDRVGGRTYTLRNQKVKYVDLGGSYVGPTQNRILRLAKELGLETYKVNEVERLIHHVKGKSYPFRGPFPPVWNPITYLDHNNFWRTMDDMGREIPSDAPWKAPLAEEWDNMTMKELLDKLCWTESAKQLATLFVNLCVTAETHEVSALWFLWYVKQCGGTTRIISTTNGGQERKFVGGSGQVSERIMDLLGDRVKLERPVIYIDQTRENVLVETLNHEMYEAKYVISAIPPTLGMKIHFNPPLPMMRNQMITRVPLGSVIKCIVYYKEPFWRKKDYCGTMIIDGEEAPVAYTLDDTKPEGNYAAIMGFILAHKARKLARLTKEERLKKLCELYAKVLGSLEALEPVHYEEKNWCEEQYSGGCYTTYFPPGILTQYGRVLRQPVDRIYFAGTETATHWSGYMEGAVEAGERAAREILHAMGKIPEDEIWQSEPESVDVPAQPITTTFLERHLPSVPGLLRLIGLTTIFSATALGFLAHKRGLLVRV
Method in brief: as §1

[3] = molecular target: T4, recombinant human DAO (diamine oxidase) (Homo sapiens, UniProt P19801); experiment: Activity on recombinant human DAO, method similar to the VAP-1 assay; settings: substrate 1 mM putrescine; read-out: Inhibitory Activity (IC50, nM) DAO
T4 construct: purchased R&D systems
T4 sequence (P19801 20-751): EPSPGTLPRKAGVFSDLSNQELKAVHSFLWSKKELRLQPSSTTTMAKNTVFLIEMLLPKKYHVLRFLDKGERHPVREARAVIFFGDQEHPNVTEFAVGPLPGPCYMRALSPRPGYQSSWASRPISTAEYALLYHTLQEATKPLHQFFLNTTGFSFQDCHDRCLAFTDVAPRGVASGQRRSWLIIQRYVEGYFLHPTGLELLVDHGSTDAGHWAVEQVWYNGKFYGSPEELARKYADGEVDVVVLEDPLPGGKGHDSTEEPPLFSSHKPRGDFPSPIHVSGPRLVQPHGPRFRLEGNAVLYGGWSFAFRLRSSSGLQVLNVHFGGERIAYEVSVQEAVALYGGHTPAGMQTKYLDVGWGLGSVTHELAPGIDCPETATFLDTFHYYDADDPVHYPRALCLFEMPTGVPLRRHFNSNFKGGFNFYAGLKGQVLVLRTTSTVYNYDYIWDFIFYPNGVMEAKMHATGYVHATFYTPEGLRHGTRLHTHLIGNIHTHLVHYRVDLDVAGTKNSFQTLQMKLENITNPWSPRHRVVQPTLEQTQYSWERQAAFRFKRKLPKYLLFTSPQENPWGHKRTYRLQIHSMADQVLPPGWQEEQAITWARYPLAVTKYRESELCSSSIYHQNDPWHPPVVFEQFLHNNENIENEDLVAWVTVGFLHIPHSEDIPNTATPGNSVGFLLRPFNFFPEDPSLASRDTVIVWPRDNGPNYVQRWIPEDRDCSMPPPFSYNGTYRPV
Method in brief: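 Inhibition of recombinant human diamine oxidase (DAO, R&D systems) was assessed by the same approach as the VAP-1 assay, using 1 mM putrescine as substrate. Hydrogen peroxide formed was detected through an HRP-coupled Amplex Red reaction yielding fluorescent resorufin, read at 544 nm excitation and 590 nm emission. IC50 values came from four-parameter logistic fitting in GraphPad Prism.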

For `NC/C(=C\F)Cn1ncn(Cc2ccc(-c3cc(F)c4[nH]c(=O)ccc4c3)s2)c1=O` [Example 82, 6-[5-(1-[(2E)-2-(aminomethyl)-3-fluoroprop-2-en-1-yl]-5-oxo-1,5-dihydro-4H-1,2,4-triazol-4-ylmethyl)thiophen-2-yl]-8-fluoroquinolin-2(1H)-one hydrochloride], the IC50 [1] was over 100000 nM, the IC50 (recombinant human VAP-1) was 0.1 nM and the IC50 [2] was 6300 nM. It also gave an IC50 [3] of 300 nM.

`Cc1cc(-c2ccc(Cn3cnn(C/C(=C/F)CN)c3=O)s2)cc2c(C(F)(F)F)cc(=O)[nH]c12` [Example 83, 6-[5-[[1-[(E)-2-(aminomethyl)-3-fluoro-allyl]-5-oxo-1,2,4-triazol-4-yl]methyl]-2-thienyl]-8-methyl-4-(trifluoromethyl)-1H-quinolin-2-one] showed an IC50 [1] of 36000 nM, an IC50 (recombinant human VAP-1) of 0.5 nM and an IC50 [2] of 650 nM. The IC50 [3] was 280 nM.

Molecule `NC/C(=C\F)Cn1ncn(Cc2ccc(-c3ccc4c(c3)OCC(=O)N4)s2)c1=O` [Example 84, 7-[5-(1-[(2E)-2-(aminomethyl)-3-fluoroprop-2-en-1-yl]-5-oxo-1,5-dihydro-4H-1,2,4-triazol-4-ylmethyl)thiophen-2-yl]-2H-1,4-benzoxazin-3(4H)-one hydrochloride] has an IC50 [1] of 63000 nM, an IC50 (recombinant human VAP-1) of 0.2 nM and an IC50 [2] of over 10000 nM. It also gave an IC50 [3] of 1300 nM.

Molecule `NC/C(=C\F)Cn1ncn(Cc2ccc(-c3ccc4c(c3)SCC(=O)N4)s2)c1=O` [Example 85, 7-[5-[[1-[(E)-2-(aminomethyl)-3-fluoro-allyl]-5-oxo-1,2,4-triazol-4-yl]methyl]-2-thienyl]-4H-1,4-benzothiazin-3-one hydrochloride] has an IC50 [1] of over 100000 nM, an IC50 (recombinant human VAP-1) of 0.3 nM and an IC50 [2] of 1700 nM. It also gave an IC50 [3] of 320 nM.

Molecule `CN1C(=O)COc2cc(-c3ccc(Cn4cnn(C/C(=C/F)CN)c4=O)s3)ccc21` [Example 86, 7-[5-[[1-[(E)-2-(aminomethyl)-3-fluoro-allyl]-5-oxo-1,2,4-triazol-4-yl]methyl]-2-thienyl]-4-methyl-1,4-benzoxazin-3-one hydrochloride] has an IC50 [1] of over 100000 nM, an IC50 (recombinant human VAP-1) of 0.2 nM and an IC50 [2] of 2500 nM. It also gave an IC50 [3] of 380 nM.

In the case of `CC1(C)Oc2cc(-c3ccc(Cn4cnn(C/C(=C/F)CN)c4=O)s3)ccc2NC1=O` [Example 87, 7-[5-[[1-[(E)-2-(aminomethyl)-3-fluoro-allyl]-5-oxo-1,2,4-triazol-4-yl]methyl]-2-thienyl]-2,2-dimethyl-4H-1,4-benzoxazin-3-one], the IC50 [1] is reported as over 100000 nM, the IC50 (recombinant human VAP-1) is reported as 0.4 nM and the IC50 [2] is reported as 2700 nM. The IC50 [3] was 760 nM.

`Cc1c(-c2ccc(Cn3cnn(C/C(=C/F)CN)c3=O)s2)ccc2c1NC(=O)CC2` [Example 88, 7-[5-[[1-[(E)-2-(aminomethyl)-3-fluoro-allyl]-5-oxo-1,2,4-triazol-4-yl]methyl]-2-thienyl]-8-methyl-3,4-dihydro-1H-quinolin-2-one] was tested, and the IC50 [1] was over 100000 nM, the IC50 (recombinant human VAP-1) was 0.3 nM and the IC50 [2] was 2400 nM. For the same molecule, the IC50 [3] was 897 nM.

With `NC/C(=C\F)Cn1ncn(Cc2ccc(-c3ccc4c(c3)NC(=O)CO4)s2)c1=O` [Example 90, 6-[5-(1-[(2E)-2-(aminomethyl)-3-fluoroprop-2-en-1-yl]-5-oxo-1,5-dihydro-4H-1,2,4-triazol-4-ylmethyl)thiophen-2-yl]-2H-1,4-benzoxazin-3(4H)-one hydrochloride] the IC50 [1] was 24000 nM, the IC50 (recombinant human VAP-1) was 0.4 nM and the IC50 [2] was 660 nM. The IC50 [3] was 230 nM.

Molecule `Cc1cc(-c2ccc(Cn3cnn(C/C(=C/F)CN)c3=O)s2)cc2c1OCC(=O)N2` [Example 91, 6-[5-(1-[(2E)-2-(aminomethyl)-3-fluoroprop-2-en-1-yl]-5-oxo-1,5-dihydro-4H-1,2,4-triazol-4-ylmethyl)thiophen-2-yl]-8-methyl-2H-1,4-benzoxazin-3(4H)-one hydrochloride] has an IC50 [1] of over 10000 nM, an IC50 (recombinant human VAP-1) of 0.9 nM and an IC50 [2] of 3200 nM. For the same molecule, the IC50 [3] was 340 nM.

In the case of `Cc1c(-c2ccc(Cn3cnn(C/C(=C/F)CN)c3=O)s2)ccc2c1NC(=O)CO2` [Example 92, 6-[5-[[1-[(E)-2-(aminomethyl)-3-fluoro-allyl]-5-oxo-1,2,4-triazol-4-yl]methyl]-2-thienyl]-5-methyl-4H-1,4-benzoxazin-3-one hydrochloride], the IC50 [1] is reported as 29000 nM, the IC50 (recombinant human VAP-1) is reported as 0.2 nM and the IC50 [2] is reported as 600 nM. For the same molecule, the IC50 [3] was 350 nM.

Work on `NC/C(=C\F)Cn1ncn(Cc2ccc(-c3cc4c(cc3F)OCC(=O)N4)s2)c1=O` [Example 93, 6-[5-(1-[(2E)-2-(aminomethyl)-3-fluoroprop-2-en-1-yl]-5-oxo-1,5-dihydro-4H-1,2,4-triazol-4-ylmethyl)thiophen-2-yl]-7-fluoro-2H-1,4-benzoxazin-3(4H)-one hydrochloride] yielded an IC50 [1] of 54000 nM, an IC50 (recombinant human VAP-1) of 0.4 nM and an IC50 [2] of 1100 nM. For the same molecule, the IC50 [3] was 230 nM.

Molecule `NC/C(=C\F)Cn1ncn(Cc2ccc(-c3cc(F)c4c(c3)NC(=O)CO4)s2)c1=O` [Example 94, 6-[5-[[1-[(E)-2-(aminomethyl)-3-fluoro-allyl]-5-oxo-1,2,4-triazol-4-yl]methyl]-2-thienyl]-8-fluoro-4H-1,4-benzoxazin-3-one hydrochloride] has an IC50 [1] of 11000 nM, an IC50 (recombinant human VAP-1) of 0.3 nM and an IC50 [2] of 1700 nM. It also gave an IC50 [3] of 160 nM.
